According to patent publication US20050222267A1, “Solution based methacholine formulations” (priority 2004, published 2005):
Read-outs that look alike come from different tables or passages of the source.

Tests used:
[1] = Terminal steam sterilisation (Example 3): recovery (product potency); type: physicochemical; settings: 20 L batches at 16 mg/ml and 0.25 mg/ml without buffer; conventional terminal steam sterilisation
Experimental: The influence of terminal steam sterilisation on the chemical properties of the methacholine drug product was determined, specifically in terms of the influence of heat on the product potency and impurity levels within the formulations.
[…] A formulation having a relatively high concentration of methacholine was used so that any changes in chemical properties were readily apparent.
The procedure described below was used for performing the high pressure liquid chromatography (HPLC) assay analysis of methacholine chloride in solution.

[2] = cited from earlier work
[3] = cited from earlier work; remark: listed apart in the source

Structure (SMILES): CC(=O)OC(C)C[N+](C)(C)C (centres unmarked) [methacholine, methacholine chloride]
- stability to terminal steam sterilisation [1]: did not withstand the high temperatures
- pH of the saline solution ([2]; methacholine 0.39 mg/ml in saline): 3.9
- pH of the saline solution ([2]; methacholine 50 mg/ml in saline): 2.7
- decomposition by hydrolysis ([3]; pH of the solution above 6): rapidly decompose
- time stable in solution ([3]; solutions of >0.3 mg/ml, stored at 4° C.): at least five
